These results are taken from PMC2813745, “A novel inhibitor of the PI3K/Akt pathway based on the structure of inositol 1,3,4,5,6-pentakisphosphate” (British Journal of Cancer, 2010).

For one experiment, the system named is SKOV-3. Description: Acridine orange/ethidium bromide apoptosis assay, SKOV-3. The class given is cell-based, human. To be noted: SKOV-3, acridine orange/ethidium bromide assay. As for the experimental part: (§1) Cells seeded in a 24-well plate were treated with the indicated compounds in serum free DMEM or DMEM containing 0.5% FBS (PC3). After 72 h, the number of surviving cells was assessed by manual cell counting or by using the cell counter CDA-500 (Sysmex, Milton Keynes, UK). Alternatively, after 48 h, the number of apoptotic cells was assessed by acridine orange/ethidium bromide assay as described ([Piccolo et al, 2004]; [Maffucci et al, 2005]). SRB test was carried out in SKOV-3 and PC3 seeded in 96-well plate (3800 cells per well or 5800 cells per well, respectively) after 72 h of treatment as described ([Cappella et al, 2001]).
(§2) The number of surviving cells was assessed by cell counting. Data are mean±s.e. of n=4 (A) and n=2 (B) independent experiments. ^**=P<0.05. […] The number of apoptotic cells was assessed by acridine orange/ethidium bromide assay. Data are mean±s.e. of three independent experiments. ^**=P<0.05.

Experiment [1] relates to SKBR3. Description: Acridine orange/ethidium bromide apoptosis assay, SKBR3. In kind it is cell-based, human. How it is done:
as §1, §2

A further experiment relates to MDA-MB-468. Description: Cell survival by cell counting, MDA-MB-468. The class given is cell-based, human. To be noted: MDA-MB-468, 72 h. As for the experimental part:
as §1
(§3) The number of surviving cells was assessed by cell counting. Data are mean±s.e. of n=3 (A), n=6 (B), n=3 (C) and n=4 (D) independent experiments carried out in duplicate. ^*=P<0.01; ^**=P<0.05. […] After 72 h the number of surviving cells was assessed by SRB assay. Data are mean±s.e. of n=2 independent experiments.
(§4) Data are mean±s.e. of n=4 independent experiments carried out in duplicate. […] Data are mean±s.e. of n=5 independent experiments carried out in duplicate. […] In all cases (A–D), cells were treated for 72 h and the number of surviving cells was assessed by cell counting. […] In all cases (E, F), cells were treated for 72 h and the number of surviving cells was assessed by SRB assay and data are mean±s.e. of two experiments carried out in quadruplicate.

For experiment [2], the system named is Akt phosphorylation in PC3. As to the kind of experiment: Akt activation by western blot in PC3. In kind it is cell-based, human. To be noted: PC3, 24 h, medium containing 0.5% FBS. As for the experimental part: (§5) Akt activation was assessed by monitoring phosphorylation at its residues Ser473 and Thr308. Membranes were then stripped and re-probed with the indicated antibodies.

In the next experiment the test system is ASPC1. Description: Cell survival by cell counting, ASPC1. To be noted: ASPC1, 72 h. In kind it is cell-based, human. How it is done:
as §1, §3, §4

The subject of the next experiment is PC3. Description: Cell survival by cell counting, PC3. In kind it is cell-based, human. To be noted: PC3, 72 h. How it is done:
as §1, §3, §4

The subject of experiment [3] is Akt phosphorylation at Ser473 and Thr308 in PC3 tumours. As to the kind of experiment: Akt phosphorylation in excised tumours (western blot). The class given is in vivo, nude athymic CD-1 nu/nu mice. To be noted: single dose 50 mg kg^−1, tumours excised 24 h after treatment. As for the experimental part: Animals were killed 24 h after treatment and tumour samples were collected and snap frozen. Frozen specimens of tumour tissue were homogenised with a Polytron homogeniser in a lysis buffer (ratio 1 : 1 w/v) containing 50 mM Tris-HCl (pH 7.4), 5 mM EDTA, 0.1% Nonidet NP-40, 250 mM NaCl, 50 mM NaF and proteases and phosphatase inhibitors. After centrifugation at 13 000 r.p.m. for 10 min at 4°C, 80 μg of protein was separated on SDS–PAGE and transferred to a polyvinylidene difluoride membrane (Millipore, MA, USA). Membranes were probed with the indicated antibodies.
The inositol compounds (12.5–25–50 mg kg^−1 day^−1) and vehicle (water) were given daily by intraperitoneal (i.p.) injections for 14 consecutive days (days 15–28). Tumour size was assessed twice weekly. (A, B) Tumour growth in 2-O-Bn-InsP5-treated mice (A) and InsP5-treated mice (B) compared with control group measured for the duration of the experiment. Results are expressed as mean±s.e. (C) Top: Table showing all P-values for the indicated doses of 2-O-Bn-InsP5 compared to controls at the indicated days of treatment (NS=not significant). […] The percentage of tumour weight inhibition (TWI%), the tumour growth delay (T−C) and the log cell kill (LCK) were calculated as described in the MATERIALS AND METHODS section. […] Phosphorylation of Akt at its residues Ser473 and Thr308 was assessed by using specific antibodies. […]

Experiment [4] has as its system SKBR3. Description: Cell survival by cell counting, SKBR3. The class given is cell-based, human. As to conditions: SKBR3, 72 h. As for the experimental part:
as §1, §2

Experiment [5] has as its system almost 60 protein kinases. Description: SelectScreen kinase profiling: all the other tested kinases of the panel. In kind it is biochemical. As to conditions: 1 μM; all tested kinases other than PDK1 and mTOR. As for the experimental part: Effect of the indicated compounds on the activity of various kinases was assessed by SelectScreen Kinase Profiling Service (Invitrogen-Life Technologies, Paisley, UK). Assays were performed using 1 μM of the tested compounds and ATP concentration as indicated in the corresponding tables. In the case of InsP5 a screen using 10 μM of the compound was also carried out, as indicated in the corresponding table.
None of the other polyphosphates had any significant effect (Table 1C). […] This is consistent with the detected inhibition of Thr308 phosphorylation in 2-O-Bn-InsP5-treated SKOV-3 and PC3 cells (Figure 1B and C) and 2-O-Bn-InsP5-treated mice (Figure 4D).

Experiment [6] concerns Akt phosphorylation in ASPC1. As to the kind of experiment: Akt activation by western blot in ASPC1. The class given is cell-based, human. To be noted: ASPC1, results not shown.
The subject of the next experiment is BxPc-3. Description: Cell survival by cell counting, BxPc-3. The class given is cell-based, human. To be noted: BxPc-3, 72 h. As for the experimental part: as §1, §3
Experiment [7] concerns Akt phosphorylation at Ser473 and Thr308 in SKOV-3. Description: Akt activation by western blot in SKOV-3. The class given is cell-based, human. To be noted: SKOV-3, 8 h or 24 h, serum free medium. How it is done:
as §5

A further experiment deals with MCF7. Description: Cell survival by cell counting, MCF7. The class given is cell-based, human. To be noted: MCF7, 72 h, 20 nM 4-OH Tamoxifen, 50 μM 2-O-Bn-InsP5 alone or in combination. As for the experimental part:
as §1
Data are mean±s.e. of n=4 independent experiments carried out in duplicate. […] Data are mean±s.e. of n=5 independent experiments carried out in duplicate. […] Data are mean±s.e. of n=6 independent experiments carried out in duplicate. […] Data are mean±s.e. of n=2 independent experiments carried out in duplicate. In all cases (A–D), cells were treated for 72 h and the number of surviving cells was assessed by cell counting. […] In all cases (E, F), cells were treated for 72 h and the number of surviving cells was assessed by SRB assay and data are mean±s.e. of two experiments carried out in quadruplicate.

For another experiment, the target named is CAMK1 (CaMK1) (Homo sapiens, UniProt Q14012). Description: SelectScreen kinase profiling: CAMK1. In kind it is biochemical. As to conditions: 10 µM compound; [ATP] 100 µM. As for the experimental part:
Effect of the indicated compounds on the activity of various kinases was assessed by SelectScreen Kinase Profiling Service (Invitrogen-Life Technologies, Paisley, UK). Assays were performed using 1 μM of the tested compounds and ATP concentration as indicated in the corresponding tables. In the case of […] a screen using 10 μM of the compound was also carried out, as indicated in the corresponding table.

CAMK1 (CaMK1), sequence (Q14012 whole entry): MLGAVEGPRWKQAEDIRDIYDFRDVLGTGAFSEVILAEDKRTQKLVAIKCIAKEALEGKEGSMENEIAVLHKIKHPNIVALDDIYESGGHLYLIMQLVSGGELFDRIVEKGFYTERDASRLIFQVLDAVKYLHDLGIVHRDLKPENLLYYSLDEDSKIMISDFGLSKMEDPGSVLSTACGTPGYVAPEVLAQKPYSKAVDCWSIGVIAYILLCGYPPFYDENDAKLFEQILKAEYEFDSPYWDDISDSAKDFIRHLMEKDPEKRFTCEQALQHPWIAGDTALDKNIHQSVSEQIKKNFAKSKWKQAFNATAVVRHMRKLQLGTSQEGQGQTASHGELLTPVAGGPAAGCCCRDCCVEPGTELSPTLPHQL

Consider `O=P(O)(O)OC1C(OCc2ccccc2)C(OP(=O)(O)O)C(OP(=O)(O)O)C(OP(=O)(O)O)C1OP(=O)(O)O` (stereo not shown) [2-O-Bn-InsP5, 2-O-benzyl-myo-inositol 1,3,4,5,6-pentakisphosphate], for which the “percentage of apoptotic cells” value in the experiment with SKOV-3 and with SKBR3 [1] was “percentage of apoptotic cells was higher in 2-O-Bn-InsP5-treated compared with InsP5-treated” in each case. In addition, the “number of surviving cells” value is “stronger activity of 2-O-Bn-InsP5 compared with InsP5” with MDA-MB-468; “more active than InsP5 at almost all concentrations tested” in the experiment on ASPC1; “stronger activity of 2-O-Bn-InsP5 compared with InsP5” in the experiment on PC3; “strongly reduced the number of surviving” with SKBR3 [4]; “more potent than InsP5 at a concentration of 50 μM” in the experiment with BxPc-3; “little effect” in the experiment on MCF7. Moreover, the Akt phosphorylation result in experiment [2] and in [6] was “able to block Akt phosphorylation” throughout. Further, in experiment [3], the “Akt phosphorylation at residue Ser473 in tumours” value was “markedly reduced Akt phosphorylation at its residue Ser473 in all 2-O-Bn-InsP5-treated mice”. Also, in experiment [3], the “Akt phosphorylation at residue Thr308 in tumours” value is “clear inhibition of Akt phosphorylation at its residue Thr308 was detected in five out of seven”. In experiment [5], the “percentage of inhibition of all the other tested kinases” value is < 40%. In addition, the “Akt phosphorylation at residue Ser473” value in [7] was “inhibited Akt phosphorylation at its residue Ser473 more efficiently than InsP5 in SKOV-3, being already active after 8 h of treatment and at a concentration of 20 μM”. In [7], the “Akt phosphorylation at residue Thr308” value is listed as “Inhibition of Akt phosphorylation at residue Thr308 was also detected”.

Take `O=P(O)(O)OC1C(O)C(OP(=O)(O)O)C(OP(=O)(O)O)C(OP(=O)(O)O)C1OP(=O)(O)O` (stereo not shown) [InsP5, inositol 1,3,4,5,6-pentakisphosphate]: at CAMK1 (CaMK1), the inhibition at 10 µM was -46%.
